From the supplement of paper PMC12137928
Structures can show the parent of a compound that is named as a salt.

System: HCT116
Conditions: 72 h
Outline: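 HCT116 cells were seeded at 250 per well in 1536-well plates and left 5 h to attach. CellTiter-Glo luminescence was scaled to vehicle (0%) and positive control (-100%), then pattern-corrected. IC50 and maximal efficacy came from four-parameter Hill fits.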

| IC50 cell viability (ICRF193 0 nM) [µM] | IC50 cell viability (ICRF193 200 nM) [µM] | Structure (SMILES) |
| --- | --- | --- |
| > 45.8 | > 45.8 | Cc1c(N(C)CS(=O)(=O)O)c(=O)n(-c2ccccc2)n1C [Dipyrone] |
| > 45.8 | > 45.8 | CN(CCCCCCN(C)C(=O)Oc1ccc[n+](C)c1)C(=O)Oc1ccc[n+](C)c1 [Distigmine Bromide] |
| > 45.8 | > 45.8 | CCN(CC)C(=S)SSC(=S)N(CC)CC [Disulfiram] |
| > 45.8 | > 45.8 | CCOC(=O)Oc1ccc(CCNC(=O)[C@H](CCSC)NC(C)=O)cc1OC(=O)OCC [Docarpamine] |
| > 45.8 | > 45.8 | CCCCCCCCCCCCCCCCCCCCCCO [Docosanol] |
| > 45.8 | > 45.8 | O=[N+]([O-])c1nccn1COC(CO)C(O)CO (stereo unspecified) [Doranidazole] |
| > 45.8 | > 45.8 | O=C(CCCN1CC=C(n2c(=O)[nH]c3ccccc32)CC1)c1ccc(F)cc1 [Droperidol] |
| > 45.8 | > 45.8 | N[C@H](C(=O)O)[C@H](O)c1ccc(O)c(O)c1 [Droxidopa] |
| > 45.8 | > 45.8 | CCCCOc1ccc(C(=O)CCN2CCCCC2)cc1 [Dyclonine hydrochloride] |
| > 45.8 | > 45.8 | CCOC(=O)COc1ccc2c(=O)cc(-c3ccccc3)oc2c1 [EFLOXATE] |
| > 45.8 | > 45.8 | C[C@]12CC[C@@H]3c4ccc(OC(=O)c5ccccc5)cc4CC[C@H]3[C@@H]1CC[C@@H]2O [ESTRADIOL BENZOATE] |
| > 45.8 | > 45.8 | CC1=NN(c2ccccc2)C(=O)C1 [Edaravone] |
| > 45.8 | > 45.8 | CC[N+](C)(C)c1cccc(O)c1 [Edrophonium chloride] |
| > 45.8 | > 45.8 | NCCCC(N)(C(=O)O)C(F)F (stereo unspecified) [Eflornithine Hydrochloride] |
| > 45.8 | > 45.8 | CC/C=C\C/C=C\C/C=C\C/C=C\C/C=C\CCCC(=O)O [Eicosapentaenoic Acid] |

Continued, molecule first:

| Structure (SMILES) | IC50 cell viability (ICRF193 0 nM) [µM] | IC50 cell viability (ICRF193 200 nM) [µM] |
| --- | --- | --- |
| CNCC(O)c1ccc(OC(=O)C(C)(C)C)c(OC(=O)C(C)(C)C)c1 (stereo unspecified) [Dipivefrin hydrochloride] | > 45.8 | > 45.8 |
| CC[N+](CC)(CC)CCOC(=O)C(C1CCCC1)C1CCCC1 [Diponium bromide] | > 45.8 | > 45.8 |
| OCCN(CCO)c1nc(N2CCCCC2)c2nc(N(CCO)CCO)nc(N3CCCCC3)c2n1 [Dipyridamole] | > 45.8 | > 45.8 |
| CC[C@H]1OC(=O)[C@H](C)[C@@H](O[C@H]2C[C@@](C)(OC)[C@@H](O)[C@H](C)O2)[C@H](C)[C@@H](O[C@@H]2O[C@H](C)C[C@H](N(C)C)[C@H]2O)[C@](C)(O)C[C@@H](C)[C@@H]2N[C@@H](COCCOC)O[C@H]([C@H]2C)[C@]1(C)O [Dirithromycin] | > 45.8 | > 45.8 |
| O=C([O-])CC(O)C(=O)[O-].[Na+].[Na+] (stereo unspecified) [Disodium 2-hydroxybutanedioate] | > 45.8 | > 45.8 |
| CC(C)N(CCC(C(N)=O)(c1ccccc1)c1ccccn1)C(C)C (stereo unspecified) [Disopyramide] | > 45.8 | > 45.8 |
| O=S(=O)(O)c1cc(O)ccc1O [Dobesilate Calcium] | > 45.8 | > 45.8 |
| CN(CCOc1ccc(NS(C)(=O)=O)cc1)CCc1ccc(NS(C)(=O)=O)cc1 [Dofetilide] | > 45.8 | > 45.8 |
| O=C(O[C@@H]1C[C@@H]2C[C@H]3C[C@H](C1)N2CC3=O)c1c[nH]c2ccccc12 [Dolasetron mesylate hydrate] | > 45.8 | > 45.8 |
| O=c1[nH]c2ccccc2n1CCCN1CCC(n2c(=O)[nH]c3cc(Cl)ccc32)CC1 [Domperidone] | > 45.8 | > 45.8 |
| COc1cc2c(cc1OC)C(=O)C(CC1CCN(Cc3ccccc3)CC1)C2 (stereo unspecified) [Donepezil hydrochloride] | > 45.8 | > 45.8 |
| NCCc1ccc(O)c(O)c1 [Dopamine hydrochloride] | > 45.8 | > 45.8 |
| C[C@@H](O)[C@H]1C(=O)N2C(C(=O)O)=C(S[C@@H]3CN[C@H](CNS(N)(=O)=O)C3)[C@H](C)[C@H]12 [Doripenem] | > 45.8 | > 45.8 |
| CCN[C@H]1C[C@H](C)S(=O)(=O)c2sc(S(N)(=O)=O)cc21 [Dorzolamide hydrochloride] | > 45.8 | > 45.8 |
| CCN1CC(CCN2CCOCC2)C(c2ccccc2)(c2ccccc2)C1=O (stereo unspecified) [Doxapram hydrochloride] | > 45.8 | > 45.8 |
| CN(C)CCC=C1c2ccccc2COc2ccccc21 [Doxepin hydrochloride] | > 45.8 | > 45.8 |
| C[C@H]1O[C@@H](n2cc(F)c(=O)[nH]c2=O)[C@H](O)[C@@H]1O [Doxifluridine] | > 45.8 | > 45.8 |
| CN(C)CCOC(C)(c1ccccc1)c1ccccn1 (stereo unspecified) [Doxylamine succinate] | > 45.8 | > 45.8 |
| CCC(=O)O[C@H]1CC[C@H]2[C@@H]3CC[C@H]4CC(=O)[C@H](C)C[C@]4(C)[C@H]3CC[C@]12C [Drostanolone propionate] | > 45.8 | > 45.8 |
| C[C@]12C=CC(=O)N[C@@H]1CC[C@@H]1[C@@H]2CC[C@]2(C)[C@@H](C(=O)Nc3cc(C(F)(F)F)ccc3C(F)(F)F)CC[C@@H]12 [Dutasteride] | > 45.8 | > 45.8 |
| Cn1c(=O)c2c(ncn2CC(O)CO)n(C)c1=O (stereo unspecified) [Dyphylline] | > 45.8 | > 45.8 |
| O=c1c2c(c1=O)N(CCP(=O)(O)O)CCCN2 [EAA-090] | > 45.8 | > 45.8 |
| CC1(C)[C@@H](O)CC[C@]2(C)[C@H]3C(=O)C=C4[C@@H]5C[C@@](C)(C(=O)O)CC[C@]5(C)CC[C@@]4(C)[C@]3(C)CC[C@@H]12 [ENOXOLONE] | > 45.8 | > 45.8 |
| Cc1ccc(/C=C2/C(=O)C3(C)CCC2C3(C)C)cc1 (stereo unspecified) [ENZACAMENE] | > 45.8 | > 45.8 |
| CCOC(=O)CCC(=O)O[C@H]1[C@H](O[C@@H]2[C@@H](C)[C@H](O[C@H]3C[C@@](C)(OC)[C@@H](O)[C@H](C)O3)[C@@H](C)C(=O)O[C@H](CC)[C@@](C)(O)[C@H](O)[C@@H](C)C(=O)[C@H](C)C[C@@]2(C)O)O[C@H](C)C[C@@H]1N(C)C [ERYTHROMYCIN ETHYLSUCCINATE] | > 45.8 | > 45.8 |
| C[C@]12CC[C@@H]3c4ccc(OS(=O)(=O)O)cc4CC[C@H]3[C@@H]1CCC2=O [ESTROPIPATE] | > 45.8 | > 45.8 |
| CN1CCc2nc(C(=O)N[C@@H]3C[C@@H](C(=O)N(C)C)CC[C@@H]3NC(=O)C(=O)Nc3ccc(Cl)cn3)sc2C1 [Edoxaban tosylate monohydrate] | > 45.8 | > 45.8 |
| C=C1CCN([C@H](C)[C@](O)(Cn2cncn2)c2ccc(F)cc2F)CC1 [Efinaconazole] | > 45.8 | > 45.8 |
